Results from PubChem BioAssay AID1159563 (GlaxoSmithKline (GSK), 2015).
Calls of active or inactive are those of the source. How the calls were made is not given here.

Test system: HepG2 cytotoxicity
Assay: HepG2 cell cytotoxicity, cytotoxicity control (AID 1159563)

SMILES | IC50
CNC(=O)C1Cc2ccccc2N1C(=O)Cc1ccccc1 (stereo not given) | > 100 µM (inactive)
OCC1CCCCN1c1cc(-c2ccccn2)nc(Nc2ccccc2)n1 (stereo not given) | 32 µM
COc1cccc(NS(=O)(=O)c2ccc3[nH]cc(C(=O)NCCC(C)C)c(=O)c3c2)c1 | 32 µM
Cc1occc1C(=O)Nc1ccccc1C(=O)Nc1nccs1 | > 100 µM (inactive)
CC(=O)Nc1ccc(-c2noc(CC3CCCN(Cc4cccc(F)c4C)C3)n2)cc1 (stereo not given) | > 100 µM (inactive)
COc1ccc(Nc2nc(-c3ccccn3)cs2)c(OC)c1 | > 100 µM (inactive)
COc1ccc(-c2csc(NC(=O)c3ccc([N+](=O)[O-])s3)n2)cc1 | > 100 µM (inactive)
Cc1cc(C)n(-c2nc(NC(C)C)nc(NC(C)(C)C)n2)n1 | > 100 µM (inactive)
CCOc1ccc(CC(=O)N2c3ccccc3CC2C(=O)NC)cc1 (stereo not given) | > 100 µM (inactive)
N#Cc1ccc(S(=O)(=O)N2CCC3(CCN(c4ccccc4)C3=O)CC2)cc1 | > 100 µM (inactive)
CCN(CC)c1ccc(S(=O)(=O)N(CC)CC)c2nonc12 | > 100 µM (inactive)
CS(=O)(=O)c1ccc(Nc2nccc(-c3cnn4ncccc34)n2)cc1 | 16 µM
CN(C)Cc1ccc(-c2ccc(S(=O)(=O)NCC3CCCO3)c(F)c2)cc1 (stereo not given) | > 130 µM (inactive)
c1ccc2c(CCOc3nccnc3-c3ccncc3)c[nH]c2c1 | > 100 µM (inactive)
N#Cc1ccc(Br)cc1[N+](=O)[O-] | 20 µM
COc1ccc(C2CC(c3ccccc3Cl)=NN2C(=O)CNC(=O)C2CCC2)cc1 (stereo not given) | > 100 µM (inactive)
CC(C)c1cc(Nc2cc(Cc3ccccc3)nc(NC3CCC(O)CC3)n2)n[nH]1 (stereo not given) | 32 µM
CCc1nn(-c2ncc(F)c(NC(C)C)n2)c(N)c1C1CCCCC1 | 32 µM
O=C(c1ccc(O)c(Cl)c1)N1CCN(c2cnccn2)CC1 | > 100 µM (inactive)
Cc1nn(-c2nc3ccccc3[nH]2)c2c1C(c1ccc(O)cc1)CC(=O)N2 (stereo not given) | 25 µM
O=C1CN(C2CCCc3c(OCc4ccncc4)cccc32)C(=O)N1C1CCCCC1 (stereo not given) | > 100 µM (inactive)
COc1cc(-c2nc(N3CCOCC3)sc2-c2ccnc(NC3CCOCC3)n2)ccc1Cl | > 100 µM (inactive)
O=C(Nc1nc(-c2ccc(F)cc2)cs1)c1ccc([N+](=O)[O-])s1 | 13 µM
COc1ccccc1C1CC(c2ccc(NS(C)(=O)=O)cc2)=NN1C(=O)c1cccs1 (stereo not given) | > 100 µM (inactive)
CS(=O)(=O)c1ccccc1C(=O)N(Cc1ccccc1)c1ccccc1 | > 100 µM (inactive)

SMILES | IC50
O=C(Nc1nc(-c2ccccn2)cs1)c1ccc(S(=O)(=O)N2CCCCC2)cc1 | 63 µM
Cc1cccc(NS(=O)(=O)c2cnc3sc(C)cn3c2=O)c1 | > 100 µM (inactive)
Cc1ccnc(NS(=O)(=O)c2ccc(NC(=O)c3ccc([N+](=O)[O-])s3)cc2)n1 | 16 µM
Clc1ccc(Sc2cnccc2N2CCOCC2)cc1 | > 100 µM (inactive)
CN(C)S(=O)(=O)c1ccc(-c2cnc(N)c(-c3nc4ccc(F)cc4[nH]3)c2)cc1 | > 100 µM (inactive)
Cn1cncc1CN1CCC2(CC1)COC(Cc1ccccc1)C2 (stereo not given) | > 100 µM (inactive)
O=C(COc1nn(-c2ccccc2)c2ncccc12)NCc1ccccc1 | > 100 µM (inactive)
O=[N+]([O-])c1ccc(-c2nnn(-c3cccnc3)n2)o1 | > 100 µM (inactive)
CCN(CC)S(=O)(=O)c1ccc(Cn2nc(C(=O)Nc3ccncn3)c3ccccc32)cc1 | > 100 µM (inactive)
CC(C)C[C@H](NC(=O)c1csc(-c2cccs2)n1)C(=O)NC1(C#N)CC1 | > 100 µM (inactive)
Cc1ccc(NC(=O)c2ccnc(N3CCCC3)c2)cc1-c1cc(C(N)=O)ccc1C | > 100 µM (inactive)
Fc1ccc(Nc2nc(-c3ccccn3)cs2)cc1 | > 100 µM (inactive)
O=C(CSc1ccc(F)cc1)N[C@@H](Cc1cnc[nH]1)C(=O)NCCc1ccccc1 | > 100 µM (inactive)
N#Cc1c(Oc2cccc(Cl)c2)cccc1[N+](=O)[O-] | 25 µM
Cc1nc2c(-c3ncn[nH]3)cc(NC(=O)Cc3ccccc3)cn2c1C | 16 µM
CCC(=O)Nc1ccc(-c2nc3ccc(Cl)cc3[nH]2)cc1 | > 100 µM (inactive)
O=C(Nc1ccc(C(F)(F)F)cc1)NC1(C(=O)NCc2ccco2)CCCCC1 | > 100 µM (inactive)
CCc1ccc2nc(NC(=O)c3cc(N4CCOCC4)ccn3)sc2c1 | > 100 µM (inactive)
O=C(NCC1CCCCC1)c1cnns1 | 40 µM
COc1ccc(S(=O)(=O)Nc2ccc(C(=O)Nc3nc(-c4ccccn4)cs3)cc2)cc1 | 63 µM
Cc1ccc(S(=O)(=O)Nc2ccc(CN3CCN(C(=O)c4cccc(C)c4)CC3)cc2)cc1 | > 100 µM (inactive)
O=C(NCc1nnc2n1CCCCC2)c1ccc(-c2ccc(F)cc2)o1 | > 100 µM (inactive)
Cc1ccc(CNC2CCN(C[C@@H]3Cn4c(=O)ccc5ccc(=O)n3c54)CC2)cc1F | > 100 µM (inactive)
c1ccc2sc(Nc3nc4ncccc4[nH]3)nc2c1 | 20 µM
CCCC(=O)N(Cc1ccccn1)c1nc2ccccc2s1 | > 100 µM (inactive)

SMILES | IC50
CNc1cc(Cn2c(C(=O)c3cc(C)cc(Cl)c3)c(C(C)C)c(=O)[nH]c2=O)ccn1 | > 100 µM (inactive)
O=C(c1cnn(-c2ccccc2)n1)N1CCCC(n2ccnc2)C1 (stereo not given) | > 100 µM (inactive)
Cc1cccc(Nc2nc(-c3ccccn3)cs2)n1 | 40 µM
O=C(Nc1nc(-c2ccccn2)cs1)N1C[C@H]2C[C@@]2(c2ccccc2)C1 | 25 µM
O=c1ccc2ccc(F)c3c2n1C[C@H]3CN1CCC(NCc2cc3ccccc3o2)CC1 | 40 µM
Fc1ccccc1N1C[C@H]2CCN(c3cccnc3)C[C@H]2C1 | > 100 µM (inactive)
CC(C)Oc1ccc(C(=O)Nc2ccc(N3CCOCC3)c(Cl)c2)cc1 | 32 µM
O=C(Nc1cccc(Cl)c1)N1CCCCC1c1cccnc1 (stereo not given) | > 100 µM (inactive)
CC(C)(C)C(=O)NCCc1csc(-c2ccc(F)cc2)n1 | > 100 µM (inactive)
CC(C)N(C(=O)CN1C(=O)C(N)C(=O)N(c2ccccc2)c2ccccc21)c1ccccc1 (stereo not given) | > 100 µM (inactive)
COc1ccc(C(C)N(C)c2ncc3c(N)nc(N)nc3n2)cc1F (stereo not given) | > 100 µM (inactive)
NC(=O)c1cc(F)ccc1Nc1nc(NC2CCC(O)CC2)ncc1Cl (stereo not given) | > 100 µM (inactive)
CCC(CC)C(=O)Nc1cccc(C(=O)Nc2nnc(C3CCCCC3)s2)c1 | > 100 µM (inactive)
O=[N+]([O-])c1cccc(Nc2cncc(-c3ccccc3CO)c2)c1 | > 100 µM (inactive)
O=C(Nc1ccc(C(F)(F)F)cc1)Nc1cccc([N+](=O)[O-])c1 | 10 µM
CC(=O)Nc1cccc(Nc2ncnc3nc[nH]c23)c1 | > 100 µM (inactive)
Cc1cc2ncn(-c3ccc([N+](=O)[O-])cc3C#N)c2cc1C | > 100 µM (inactive)
Cc1cc(N(C)C)nc(Nc2ccccc2C)n1 | 63 µM
COc1cc2c(cc1OC)[C@H]1[C@@H](C)c3ccc(OC)c(OC)c3CN1CC2 | > 100 µM (inactive)
O=C(CN(Cc1ccccn1)Cc1ccccn1)NCc1csc(-c2cccs2)n1 | > 100 µM (inactive)
Cc1c([N+](=O)[O-])c(C(=O)Nc2sc3c(c2C#N)CCC(C)C3)nn1C (stereo not given) | > 100 µM (inactive)
COc1ccc2ncc(Cl)c(CCN3CC[C@@H](NCc4cc5c(cn4)OCS5)[C@H](O)C3)c2n1 | 50 µM
Cc1ccc(NC(=O)c2ccc(Cl)c(NC(=O)c3ccc([N+](=O)[O-])cc3)c2)cc1 | > 100 µM (inactive)
Cc1ccccc1OCC(=O)N1CCCN(c2cccnn2)CC1 | > 100 µM (inactive)
CCOc1ccccc1C(=O)Nc1nnc(-c2ccc3c(c2)OCO3)s1 | > 100 µM (inactive)

SMILES | IC50
N#Cc1cc(-c2ccnc(Nc3cccc(CN4CCOCC4)c3)n2)ccc1NCCN | 50 µM
COc1ccc(C(=O)Nc2c(C)nn(COc3cccc(C(F)(F)F)c3)c2C)cc1 | > 100 µM (inactive)
O=C(Nc1nc2ccccc2[nH]1)c1c(O)c2cccc3c2n(c1=O)CC3 | 10 µM
Cn1ccnc1CN1CCc2[nH]cnc2C1c1ccccc1OCc1ccccc1 (stereo not given) | > 100 µM (inactive)
OC1CCC(Nc2nccc(-c3sc(C4CCOCC4)nc3-c3ccc(F)c(F)c3)n2)CC1 (stereo not given) | 25 µM
CC(C)(C)c1csc(NC(=O)c2ccc([N+](=O)[O-])s2)n1 | 50 µM
Cc1ccc(S(=O)(=O)Cn2nnnc2C(c2cccnc2)N2CCN(c3ccccc3)CC2)cc1 (stereo not given) | > 100 µM (inactive)
CCC(c1ccc(F)cc1)n1cncc1-c1cnn(C)c1 (stereo not given) | > 100 µM (inactive)
O=C(c1cccc(Nc2ncc(-c3ccc4c(c3)OCO4)cn2)c1)N1CCSC1 | 10 µM
NC(=O)c1cc(F)ccc1Nc1nc(NC2CCC(O)CC2)ncc1Br (stereo not given) | 50 µM
Cc1[nH]c2ccccc2c(=O)c1Cc1c(C)[nH]c2ccccc2c1=O | > 100 µM (inactive)
CCCN1CCN(Cc2ccc(S(=O)(=O)Nc3cccc(C)c3)cc2)CC1 | > 100 µM (inactive)
O=c1ccc2ccc(F)c3c2n1C[C@H]3CN1CCN(CC(O)c2cc3c(cn2)OCS3)CC1 (stereo not given in full) | > 100 µM (inactive)
O=C(NCCNc1noc(-c2ccc([N+](=O)[O-])cc2)n1)c1ccc(Cl)cc1 | > 100 µM (inactive)
COc1ccc(NC(=O)c2ccc(NC(=O)CN(c3ccccc3C)S(C)(=O)=O)cc2)cc1 | 40 µM
O=C(NCCc1csc(-c2cccc(F)c2)n1)c1ccco1 | > 100 µM (inactive)
CCOc1ccc(NC(=O)C=Cc2ccc(CC)o2)cc1 | 79 µM
O=C(Nc1cccc(S(=O)(=O)Nc2ccc(Br)cc2)c1)c1ccc([N+](=O)[O-])s1 | 16 µM
Cc1nc(C(=O)Nc2ccc3c(c2)OCO3)nn1-c1ccc(Cl)cc1 | > 100 µM (inactive)
O=C(NC1C(=O)N(c2ccccc2)C1c1cccnc1)c1ccc(Cl)s1 (stereo not given) | > 100 µM (inactive)
c1ccc(Nc2nc(-c3ccccn3)cc(N3CCOCC3)n2)cc1 | > 100 µM (inactive)
Nc1nc(-c2ccccn2)nc(-n2nc(-c3cccc(C(F)(F)F)c3)cc2N)n1 | 20 µM
CCC(CC)C(=O)Nc1ccc(-c2nnc(-c3ccc(OC)cc3)o2)cc1 | > 100 µM (inactive)
COc1ccc(CN(C)Cc2ccncc2)cc1-c1ccc(S(=O)(=O)NC2CCC2)s1 | > 100 µM (inactive)
NS(=O)(=O)c1ccc(CNC(=O)c2ccc([N+](=O)[O-])s2)cc1 | 16 µM
